Format in all cases: biochemical
The target in one assay is T1, Recombinant human MAO-B (Homo sapiens, UniProt P27338).
T1 construct: purchased Sigma M7441
T1 sequence (P27338 1-520): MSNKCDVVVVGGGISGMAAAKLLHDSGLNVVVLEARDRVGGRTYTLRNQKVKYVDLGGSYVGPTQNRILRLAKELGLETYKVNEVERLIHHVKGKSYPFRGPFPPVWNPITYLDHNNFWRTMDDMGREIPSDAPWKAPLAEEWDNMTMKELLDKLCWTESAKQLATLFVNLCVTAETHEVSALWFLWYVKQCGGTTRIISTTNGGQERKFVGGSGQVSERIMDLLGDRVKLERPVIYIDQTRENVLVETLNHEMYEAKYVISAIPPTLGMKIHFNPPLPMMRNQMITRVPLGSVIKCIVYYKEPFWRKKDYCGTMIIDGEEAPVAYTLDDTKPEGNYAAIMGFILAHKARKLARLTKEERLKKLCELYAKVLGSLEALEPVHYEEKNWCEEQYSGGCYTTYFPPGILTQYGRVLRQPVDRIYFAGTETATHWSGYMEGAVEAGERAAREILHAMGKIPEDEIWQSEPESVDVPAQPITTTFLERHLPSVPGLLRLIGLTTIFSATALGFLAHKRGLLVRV
The assay can be described thus: Inhibitory activity on MAO-B. The protocol:
(§1) Recombinant human MAO-A and MAO-B protein was purchased from Sigma (M7316, M7441). Other reagents are the same as Biological Test Example 1. The final concentration of test compound in 10 μL reaction system was 100 μM to 5 nM when MAO-A and MAO-B were detected. The final concentrations of MAO-A and MAO-B protein in 10 μL reaction system were 70 nM and 300 nM, respectively, while other reaction conditions were the same as those in Biological Test Example 1. Data analysis and IC50 calculation method were the same as those in Biological Test Example 1.

The target of assay [1] is T2, Recombinant human SSAO protein (Homo sapiens, UniProt Q16853).
T2 construct: Eli Lilly (provided, not a catalogue product)
T2 sequence (Q16853 1-763): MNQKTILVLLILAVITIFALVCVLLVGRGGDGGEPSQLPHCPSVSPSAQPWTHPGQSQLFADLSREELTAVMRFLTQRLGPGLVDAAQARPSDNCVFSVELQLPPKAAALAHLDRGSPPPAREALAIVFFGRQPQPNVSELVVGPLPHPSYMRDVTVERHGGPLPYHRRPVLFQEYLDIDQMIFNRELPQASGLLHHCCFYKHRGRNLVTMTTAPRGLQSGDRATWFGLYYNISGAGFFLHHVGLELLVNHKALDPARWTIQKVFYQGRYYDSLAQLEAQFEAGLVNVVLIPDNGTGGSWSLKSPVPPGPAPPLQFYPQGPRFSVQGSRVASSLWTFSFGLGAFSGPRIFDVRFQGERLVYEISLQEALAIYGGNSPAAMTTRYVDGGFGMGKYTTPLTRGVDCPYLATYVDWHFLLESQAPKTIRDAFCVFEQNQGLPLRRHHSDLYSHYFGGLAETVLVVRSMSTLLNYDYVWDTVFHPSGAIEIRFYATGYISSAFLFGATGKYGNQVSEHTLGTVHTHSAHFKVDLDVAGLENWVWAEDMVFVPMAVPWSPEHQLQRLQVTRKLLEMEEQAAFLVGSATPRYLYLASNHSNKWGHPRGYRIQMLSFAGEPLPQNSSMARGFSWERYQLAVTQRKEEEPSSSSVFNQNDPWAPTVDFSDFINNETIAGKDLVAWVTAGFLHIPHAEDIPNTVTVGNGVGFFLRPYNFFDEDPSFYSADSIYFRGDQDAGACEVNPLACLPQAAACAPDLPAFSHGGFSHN
Kind of assay: In vitro inhibitory activity on SSAO/VAP-1 (MAO-Glo assay), human. The procedure:
This assay was used to evaluate the in vitro inhibitory activity of the compounds on SSAO/VAP-1 of different species. Recombinant human SSAO protein, mouse SSAO protein or rat SSAO protein (provided by Eli Lilly) were used. The enzyme activity detection kit, MAO-Glo Assay kit (V1402) was purchased from Promega. Enzyme reaction buffer (50 mM HEPES, 120 mM NaCl, 5 mM KCl, 2 mM CaCl2, 1.4 mM MgCl2, 0.001% Tween-20, pH7.4) was prepared. The test compound was dissolved in DMSO and diluted by 3-fold concentration in gradient. The final concentration of test compound in a 10 μL reaction system was 1 μM to 0.05 nM when SSAO was detected. The content of DMSO in the detection reaction was 1%. After the solution of test compound in DMSO was diluted in the enzyme reaction buffer at a volume ratio of 1:25, 2.5 μL of which was added to each well of detection plate, two replicates for each concentration. 5 μL of SSAO protein diluted in the enzyme reaction buffer was added to each well, the final concentration of which was 10 nM to 80 nM in 10 μL reaction system. The mixture was incubated at room temperature for 10 minutes. 2.5 μL of the reaction substrate diluted in the enzyme reaction buffer was added to each well, the final concentration of which was 10 μM in 10 μL reaction system. After the mixture was reacted at room temperature for 120 minutes, 10 μL of detection reagent was added to each well. The reaction solution was incubated for 20 minutes at room temperature, and the plate was read with Synergy Neo 2 for detection. The value was converted into inhibition rate by the following formula: Inhibition rate=(Signalpositive−Signaltest)/(Signalpositive−Signalnegative)×100%
Signalpositive was positive control without test compound. Signalnegative was negative control without test compound and SSAO enzyme, and Signaltest was detection value of each compound at different concentrations. IC50 value was calculated by using 4 parameter curve fitting.

A further assay addresses T3, Recombinant human MAO-A (Homo sapiens, UniProt P21397).
T3 construct: purchased Sigma M7316
T3 sequence (P21397 1-527): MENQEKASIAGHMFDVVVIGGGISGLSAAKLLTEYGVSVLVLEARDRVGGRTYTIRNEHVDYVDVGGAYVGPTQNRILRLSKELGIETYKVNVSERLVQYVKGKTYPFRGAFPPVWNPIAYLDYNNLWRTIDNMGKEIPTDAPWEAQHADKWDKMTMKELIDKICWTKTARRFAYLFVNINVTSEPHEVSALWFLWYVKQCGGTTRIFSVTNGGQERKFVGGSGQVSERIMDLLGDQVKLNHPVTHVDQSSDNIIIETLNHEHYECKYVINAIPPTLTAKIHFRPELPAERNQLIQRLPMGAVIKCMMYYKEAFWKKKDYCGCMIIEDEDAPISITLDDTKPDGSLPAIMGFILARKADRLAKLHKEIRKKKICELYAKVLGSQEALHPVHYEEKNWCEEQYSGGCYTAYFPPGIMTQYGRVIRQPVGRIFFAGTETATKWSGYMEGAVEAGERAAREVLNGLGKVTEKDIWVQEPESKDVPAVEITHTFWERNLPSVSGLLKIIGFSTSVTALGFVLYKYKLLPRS
Kind of assay: Inhibitory activity on MAO-A. The protocol: as §1

Usually IC50 stands for the point on the concentration scale where inhibition reaches its midpoint.

In the case of `N#Cc1cc(OC/C(=C/F)CN)cnc1N1CCN(C2COC2)CC1` [Example 7], the values for the IC50 (at Recombinant human MAO-B; in assay [1]; at Recombinant human MAO-A) were 5 to 20 µM, greater than 0.05 µM and greater than 100 µM, respectively.
On to `COC1CC2CC1CN2c1ncc(OC/C(=C/F)CN)cn1` (stereo not drawn) [Example 2], for which the IC50 at Recombinant human MAO-B was greater than 20 µM; in assay [1], less than 0.01 µM; at Recombinant human MAO-A, 2 to 100 µM.
For `NC/C(=C/F)COc1cnc(N2CCN(C3COC3)CC2)nc1` [Example 8], the 50% inhibitory concentration (IC50) at Recombinant human MAO-B is 5 to 20 µM; in assay [1], less than 0.01 µM; at Recombinant human MAO-A it was 2 to 100 µM.
As for `CC1(C)CN(c2ncc(OC/C(=C/F)CN)cn2)CCN1C1COC1` [Example 10], the half-inhibitory concentration (IC50) is greater than 20 µM at Recombinant human MAO-B, 0.01 to 0.05 µM in assay [1] and greater than 100 µM at Recombinant human MAO-A.
On the same counts, the results for `CC1(C)CN(C2COC2)CCN1c1ncc(OC/C(=C/F)CN)cn1` [Example 5] are greater than 20 µM, 0.01 to 0.05 µM and greater than 100 µM.
Turning to `NC/C(=C\F)COc1cnc(N2CCC3(CC2)COC3)nc1` [Example 3], the results for the IC50 (on Recombinant human MAO-B; in assay [1]; at Recombinant human MAO-A) were greater than 20 µM, less than 0.01 µM and 2 to 100 µM, respectively.
`NC/C(=C\F)COc1cnc(N2CCN(c3cnc(N4CCN(C5COC5)CC4)nc3)CC2)nc1` [Example 9]: the values for the 50% inhibitory concentration (IC50) (on Recombinant human MAO-B; in assay [1]; on Recombinant human MAO-A) were greater than 20 µM, less than 0.01 µM and greater than 100 µM, respectively.
For the compound `COC1CC2CCC(C1)N2c1ncc(OC/C(=C/F)CN)cn1` (stereo not drawn) [Example 12], the results for the half-inhibitory concentration (IC50) (at Recombinant human MAO-B; in assay [1]; at Recombinant human MAO-A) were greater than 20 µM, less than 0.01 µM and 2 to 100 µM, respectively.
`NC/C(=C\F)COc1cnc(N2CCN(C3COC3)CC2)nc1` [Example 4, (E)-3-fluoro-2-(((2-(4-(oxbutan-3-yl)piperazin-1-yl)pyrimidin-5-yl)oxo)methyl)prop-2-en-1-amine]: the IC50 on Recombinant human MAO-B is greater than 20 µM; in assay [1] it was less than 0.01 µM; at Recombinant human MAO-A it was greater than 100 µM.
On the same counts, the results for `CC1CN(c2ncc(OC/C(=C/F)CN)cn2)CC(C)N1C1COC1` (stereo not drawn) [Example 1, (E)-2-(((2-(3,5-dimethyl-4-(oxbutan-3-yl)piperazin-1-yl)pyrimidin-5-yl)oxo)methyl)-3-fluoroprop-2-en-1-amine] are greater than 20 µM, less than 0.01 µM and greater than 100 µM.
For the compound `NC/C(=C\F)COc1cnc(N2CC3CCC(C2)N3C2COC2)nc1` [Example 6], the values for the IC50 (on Recombinant human MAO-B; in assay [1]; on Recombinant human MAO-A) were greater than 20 µM, 0.01 to 0.05 µM and greater than 100 µM, respectively.

(Values after US12258336B2, “Preparation of seimicarbazide-sensitive amine oxidase inhibitor and use thereof” (SHANGHAI ENNOVABIO PHARMACEUTICALS CO., LTD., priority 2018, dated 2025).)
